Measured values taken from paper PMC3070799 (Neuropharmacology, 2011).
Read-outs that look alike come from different tables or passages of the source.

What was measured:
human 5-HT3AB receptors = biological target: T1, human 5-HT3AB receptors (Homo sapiens, UniProt O95264+P46098); assay: Two-electrode voltage clamp of 5-HT-induced currents in Xenopus oocytes; format: cell-based
T1 construct: expressed in transfected cells; host or cells: Xenopus laevis oocytes (cRNA from pGEMHE)
T1 sequence (P46098 24-478): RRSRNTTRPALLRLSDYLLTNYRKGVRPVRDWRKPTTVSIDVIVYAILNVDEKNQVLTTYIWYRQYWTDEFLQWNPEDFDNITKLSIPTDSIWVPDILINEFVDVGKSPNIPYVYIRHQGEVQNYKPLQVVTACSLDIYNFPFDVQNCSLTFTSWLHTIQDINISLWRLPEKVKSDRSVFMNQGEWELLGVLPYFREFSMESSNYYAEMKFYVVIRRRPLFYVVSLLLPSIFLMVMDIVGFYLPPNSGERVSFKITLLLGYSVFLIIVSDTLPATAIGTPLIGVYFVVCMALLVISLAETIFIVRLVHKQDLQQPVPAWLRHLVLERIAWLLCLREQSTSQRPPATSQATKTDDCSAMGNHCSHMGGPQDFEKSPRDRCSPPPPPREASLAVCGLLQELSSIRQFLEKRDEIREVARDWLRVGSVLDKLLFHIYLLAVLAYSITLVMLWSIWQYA
T1 sequence (O95264 22-441): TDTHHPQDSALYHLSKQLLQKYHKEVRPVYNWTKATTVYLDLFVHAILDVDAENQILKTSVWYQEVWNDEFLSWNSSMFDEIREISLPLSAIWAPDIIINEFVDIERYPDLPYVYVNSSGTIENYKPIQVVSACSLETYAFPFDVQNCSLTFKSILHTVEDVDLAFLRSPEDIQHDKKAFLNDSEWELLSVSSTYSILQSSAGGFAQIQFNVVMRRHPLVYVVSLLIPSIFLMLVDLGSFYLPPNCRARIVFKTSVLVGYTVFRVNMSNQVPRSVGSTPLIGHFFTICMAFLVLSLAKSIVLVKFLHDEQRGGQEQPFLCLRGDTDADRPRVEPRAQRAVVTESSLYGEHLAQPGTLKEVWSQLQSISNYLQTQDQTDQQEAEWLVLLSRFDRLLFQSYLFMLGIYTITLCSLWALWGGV
Method: (§1) Stage V and VI oocytes were injected with 50 nl of ∼300 ng μl^−1 cRNA, and currents were recorded 1–4 days post-injection. A ratio of 1:3 (A:B) was used for the expression of heteromeric 5-HT3 receptors.
(§2) Xenopus laevis oocyte positive females were purchased from NASCO (Fort Atkinson, Wisconsin, USA) and maintained according to standard methods.
(§3) Currents were filtered at a frequency of 1 kHz. Micro-electrodes were fabricated from borosilicate glass (GC120TF-10, Harvard Apparatus, Edenbridge, Kent, UK) using a two stage horizontal pull (P-87, Sutter Instrument Company, California, USA) and filled with 3 M KCl. […] Oocytes were perfused with saline at a rate of 15 ml min^−1. Drug application was via a simple gravity fed system calibrated to run at the same rate. Extracellular saline contained (mM), 96 NaCl, 2 KCl, 1 MgCl2 and 5 mM HEPES; adjusted to pH 7.4 with NaOH.
(§4) Analysis and curve fitting was performed using Prism V3.02 (GraphPad Software, San Diego, California, USA, www.graphpad.com). Concentration-response data for each oocyte was normalised to the maximum current for that oocyte. For inhibition curves, antagonists were routinely co-applied in the presence of agonist. For PXN, oocytes were also pre-treated with the compound for 20 s. A 2 min wash was used between drug applications. The mean and S.E.M. for a series of oocytes was plotted against agonist or antagonist concentration and iteratively fitted (GraphPad Prism v3.02) to the following Hill equation:(1) IA=Imin+Imax−Imin/1+10^nH(logA50−logA) where A is the concentration of ligand present; IA is the current in the presence of ligand concentration A; Imin is the current when A = 0; Imax is the current when A = ∞ , A50 is the concentration of A which evokes a current equal to (Imax + Imin)/2; and nH is the Hill coefficient. Results are presented as mean ± S.E.M.. Statistical analysis was performed using ANOVA in conjunction with a Dunnett’s post-hoc test.

human 5-HT3A receptors = biological target: T2, human 5-HT3A receptors (Homo sapiens, UniProt P46098); assay: Two-electrode voltage clamp of 5-HT-induced currents in Xenopus oocytes, incl. co-application; format: cell-based
T2 construct: expressed in transfected cells; host or cells: Xenopus laevis oocytes (cRNA from pGEMHE)
T2 sequence (P46098 24-478): T1 sequence (P46098 24-478)
Method: as §1, §2, §3, §4
97) • Scenario 1: Where compounds share a binding site it was assumed that the extent of binding would be determined by a competitive interaction between the compounds such that the proportion of binding sites occupied (Pocc) in the presence of two competing compounds is given by the following expression: (2) Pocc=AKA+BKB/1+AKA+BKB where A and B are the concentrations of two ligands and KA and KB are their affinity constants respectively.
In each individual experiment, for each combination of inhibitors, data values were obtained for IA, IB and IAB. From IA and IB predicted values of IAB1 and IAB2 were also derived. A two-way ANOVA was performed on values of IAB, IAB1 and IAB2 in which the distinction between IAB, IAB1 and IAB2 was treated as a fixed factor and the variation in levels of inhibition between experiments was treated as a random factor. Where the ANOVA indicated a significant difference (P < 0.05) between IAB, IAB1 and IAB2 a post-hoc analysis was carried out using the Waller–Duncan method to identify homogenous subsets with a significance level of 0.05 and a Type I /Type II error ratio if 100.
Our models were based on the following assumptions: 1. that the channel blocking compounds only effect the response that is seen when the channel is open. […] In the case of condition 5 it is possible that the binding of one compound may prevent access of another to its own site. However, in practice this will not influence the analysis since the functional consequence of the binding of both compounds compared to one will be the same, namely complete channel blockade.

glycine α1 receptors = biological target: glycine α1 receptors; set-up: method as in Yang et al., 2007; settings: ref Yang et al., 2007; cited from earlier work
glycine α1β receptors = biological target: glycine α1β receptors; set-up: method as in Yang et al., 2007; settings: ref Yang et al., 2007; cited from earlier work
[1] = abstract, 5-HT-induced responses, Xenopus oocytes, read-out: IC50
[2] = read-out: inhibition at the highest concentration used

Compound | IC50 (human 5-HT3AB receptors; [1]) [µM] | IC50 (human 5-HT3AB receptors; inhibition of 5-HT EC50 response (28 μM 5-HT), oocytes, read-out: IC50) [µM] | inhibition at 1000 µM (human 5-HT3AB receptors; [2]) [%] | inhibition (in words) (human 5-HT3A receptors; 1 mM, seen in the 5-HT3A receptor only) | IC50 (human 5-HT3A receptors; [1]) [µM] | IC50 (human 5-HT3A receptors; inhibition of 5-HT EC50 response (1.7 μM 5-HT), oocytes, read-out: IC50) [µM] | inhibition at 1000 µM (human 5-HT3A receptors; [2]) [%] | IC50 (glycine α1 receptors) [µM] | IC50 (human 5-HT3AB receptors; IC50, inhibition of 5-HT EC50 response (28 μM 5-HT), oocytes) [µM] | Hill slope (human 5-HT3AB receptors; concentration-inhibition curve, 28 μM 5-HT) | IC50 (human 5-HT3AB receptors; pIC50, inhibition of 5-HT EC50 response (28 μM 5-HT), oocytes) [µM] | IC50 (glycine α1β receptors) [µM] | IC50 (human 5-HT3A receptors) [µM] | ratio of current amplitudes at +40 mV relative to −40 mV (voltage-dependence) (human 5-HT3A receptors; compared with absence of antagonist, Fig. 2E) | Hill slope (human 5-HT3A receptors; concentration-inhibition curve, 1.7 μM 5-HT)
C[C@@H]1C(=O)O[C@H]2C[C@@]34[C@H]5C[C@@H](C(C)(C)C)[C@]36[C@@H](OC(=O)[C@@H]6O)O[C@@]4(C(=O)O5)[C@]21O [GA, ginkgolide A] | > 1000 | > 1000 | ≤ 50 | minimal inhibition | > 1000 | > 1000 | ≤ 50 | – | – | – | – | – | – | – | –
CC(C)(O)[C@@H]1[C@H]2OC(=O)[C@@H]1[C@]1(O)C[C@H]3O[C@]34C(=O)O[C@H]2[C@]14C [PTN, picrotin] | – | – | – | – | – | – | – | ~5 | 2900 | 0.99 ± 0.07 | 2950 | ~30 | 470 | unaltered | 1.33 ± 0.15
